Test results reported in PMC5040251, “The Structure of Treponema pallidum Tp0751 (Pallilysin) Reveals a Non-canonical Lipocalin Fold That Mediates Adhesion to Extracellular Matrix Components and Interactions with Host Cells” (PLoS Pathogens, 2016).
Ends that are not written are not given here.

How the values were obtained:
fibronectin [1] = assay: Dose-dependent binding assay to immobilized fibronectin; details: plate binding to immobilized human plasma fibronectin; peptides serially diluted 1:2 from 40 to 0.625; absorbance 600 nm, three wells, representative of two independent experiments; non-linear regression, GraphPad Prism; read-out: Apparent Kd (Fn)
Protocol: (§1) Fig 3 Tp0751 lipocalin derived peptides directly bind host proteins. (A) Thirteen overlapping Tp0751 synthetic 24-mer peptides were evaluated for binding to immobilized fibrinogen, fibronectin, collagen type I, and collagen type IV. Average absorbance readings (600 nm) from three wells are presented with bars indicating standard error and the results are representative of two independent experiments. […] Average absorbance readings (600 nm) from three wells are presented with bars indicating standard error and the results are representative of two independent experiments. […] The strand colored in cyan reflects the overlap of p10 and p11. Color coded sequences of peptides p4, p6, p10, p10scr1, and p10scr2 are shown. Arginine residues in the p10 peptides are indicated by underlining.
(§2) Plasminogen-depleted human fibrinogen (Calbiochem) was purchased from VWR International. Laminin isolated from Engelbreth-Holm-Swarm murine sarcoma basement membrane and fibronectin isolated from human plasma were purchased from Sigma-Aldrich Canada Ltd. (Oakville, ON). Human collagen types I and IV (Rockland Immunochemicals, Inc.) were purchased from VWR International.
(§3) To test for binding of synthetic Tp0751 peptides p1-p13, p1scr, p6scr, p10scr1, and p10scr2 to the host proteins fibrinogen, fibronectin, laminin, collagen type I, and collagen type IV, initial binding assays were performed as described previously. For dose-dependent binding assays, recombinant proteins were serially diluted 1:2 from either 10 μM to 0.156 μm (Tp0751_78A used for crystallization and Tp0751_78 WT) or 40 μm to 0.625 μm (peptides p4, p6, p10, p11, p10scr1, and p10scr2). Average absorbance readings (600 nm) from three wells are presented with bars indicating standard error and the results are representative of two independent experiments. Plates were read at 600 nm with a BioTek enzyme-linked immunosorbent assay plate reader (Fisher Scientific, Ottawa, ON). All statistical analyses were performed using the Student’s two-tailed t-test. Non-linear regression curves were fitted and apparent dissociation constants (K d) were calculated using GraphPad Prism data analysis software (San Diego, CA).

fibrinogen = molecular target: T1, fibrinogen (Homo sapiens, UniProt P02671+P02675+P02679); assay: Initial (single point) binding screen of Tp0751 peptide library to immobilized fibrinogen; details: absorbance 600 nm, three wells, two independent experiments, Student's two-tailed t-test against non-binding peptides
T1 construct: purchased Calbiochem, purchased from VWR International
T1 sequence (P02671 20-629 limits assumed): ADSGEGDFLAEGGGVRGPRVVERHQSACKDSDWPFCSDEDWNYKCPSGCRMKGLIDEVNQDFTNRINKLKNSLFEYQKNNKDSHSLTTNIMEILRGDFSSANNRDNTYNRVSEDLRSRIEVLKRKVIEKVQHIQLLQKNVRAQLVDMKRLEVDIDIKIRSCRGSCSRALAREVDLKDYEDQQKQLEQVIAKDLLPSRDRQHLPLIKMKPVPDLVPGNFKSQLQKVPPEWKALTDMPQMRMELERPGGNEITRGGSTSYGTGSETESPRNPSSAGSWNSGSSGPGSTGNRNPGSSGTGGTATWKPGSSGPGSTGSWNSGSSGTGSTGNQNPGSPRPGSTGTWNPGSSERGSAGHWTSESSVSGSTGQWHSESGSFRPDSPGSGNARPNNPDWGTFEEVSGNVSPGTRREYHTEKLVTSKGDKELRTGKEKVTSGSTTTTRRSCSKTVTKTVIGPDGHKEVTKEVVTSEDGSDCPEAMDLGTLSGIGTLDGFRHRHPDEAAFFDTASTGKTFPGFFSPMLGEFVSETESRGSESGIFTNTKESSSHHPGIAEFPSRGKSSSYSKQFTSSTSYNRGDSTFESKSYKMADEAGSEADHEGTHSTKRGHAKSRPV
T1 sequence (P02675 31-491): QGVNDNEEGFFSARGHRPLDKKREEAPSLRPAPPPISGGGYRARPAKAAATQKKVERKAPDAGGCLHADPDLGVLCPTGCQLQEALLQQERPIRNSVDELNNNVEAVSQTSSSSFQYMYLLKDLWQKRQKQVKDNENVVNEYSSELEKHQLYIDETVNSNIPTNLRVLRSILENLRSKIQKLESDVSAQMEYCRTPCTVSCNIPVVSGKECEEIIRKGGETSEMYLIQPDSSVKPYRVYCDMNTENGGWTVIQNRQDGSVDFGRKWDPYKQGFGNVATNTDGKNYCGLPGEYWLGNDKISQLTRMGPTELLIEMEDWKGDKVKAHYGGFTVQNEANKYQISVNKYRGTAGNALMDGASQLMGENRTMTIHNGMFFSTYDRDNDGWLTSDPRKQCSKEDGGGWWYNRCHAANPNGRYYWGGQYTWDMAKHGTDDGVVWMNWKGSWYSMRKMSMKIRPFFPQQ
T1 sequence (P02679 27-433 limits assumed): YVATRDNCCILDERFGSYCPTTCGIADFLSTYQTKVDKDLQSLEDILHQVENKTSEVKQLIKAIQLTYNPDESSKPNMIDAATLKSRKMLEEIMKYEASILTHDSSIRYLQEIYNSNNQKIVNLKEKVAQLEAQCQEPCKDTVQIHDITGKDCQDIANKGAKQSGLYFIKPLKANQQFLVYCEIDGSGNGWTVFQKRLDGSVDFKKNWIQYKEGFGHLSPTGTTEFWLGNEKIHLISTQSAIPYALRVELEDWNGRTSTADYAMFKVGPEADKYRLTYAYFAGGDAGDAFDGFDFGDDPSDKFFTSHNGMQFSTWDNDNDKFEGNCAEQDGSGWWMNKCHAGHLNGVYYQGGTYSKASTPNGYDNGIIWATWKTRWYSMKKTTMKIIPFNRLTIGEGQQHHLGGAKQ
Protocol: as §1, §2, §3

fibronectin [2] = assay: Initial (single point) binding screen of Tp0751 peptide library to immobilized fibronectin; design: species or system human; details: absorbance 600 nm, three wells, two independent experiments, Student's two-tailed t-test against non-binding peptides
Protocol: as §1, §2, §3

| Sequence | Kd (fibronectin [1]) | Binding to fibrinogen in initial binding screen (fibrinogen) | Binding to fibronectin in initial binding screen (fibronectin [2]) |
| --- | --- | --- | --- |
| HHHHHHGGAAQTHTQPPVQTAMRIALWNRA [p4] | 2.4 ± 0.1 µM | statistically significant binding | statistically significant binding |
| HHHHHHQGALQHLLAGLWIQTEISPNSGDI [p6] | 4.5 ± 0.9 µM | statistically significant binding | statistically significant binding |
| HHHHHHRKTVSFLTRNTAISSIRRRLEVTF [p10] | 1.6 ± 0.2 µM | significant binding | significant binding |
| HHHHHHSIRRRLEVTFESHEVIHVRAVEDV [p11] | 5.8 ± 0.3 µM | statistically significant binding | statistically significant binding |
